How the values were obtained:
[1] = molecular target: T1, Muscarinic acetylcholine receptor M1 (Rattus norvegicus, UniProt P08482); experiment: Evaluated for inhibition of binding of [3H]pirenzepine to homogenized rat cerebral cortex membranes; assay type: cell membranes, Membrane
T1 sequence (P08482 whole entry): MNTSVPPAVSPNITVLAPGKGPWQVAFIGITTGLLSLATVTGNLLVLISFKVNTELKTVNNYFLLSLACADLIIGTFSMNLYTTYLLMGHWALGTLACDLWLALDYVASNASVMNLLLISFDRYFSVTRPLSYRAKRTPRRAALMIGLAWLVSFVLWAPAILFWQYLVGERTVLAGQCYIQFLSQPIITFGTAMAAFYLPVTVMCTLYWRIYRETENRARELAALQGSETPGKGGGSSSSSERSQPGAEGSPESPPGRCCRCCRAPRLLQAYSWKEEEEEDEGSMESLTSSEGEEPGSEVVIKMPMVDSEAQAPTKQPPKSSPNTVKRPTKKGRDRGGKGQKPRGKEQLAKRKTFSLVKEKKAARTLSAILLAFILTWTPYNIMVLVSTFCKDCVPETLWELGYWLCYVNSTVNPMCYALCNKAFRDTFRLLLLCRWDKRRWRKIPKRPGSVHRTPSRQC

[2] = species on record: Rattus norvegicus; experiment: Evaluated for the muscarinic potency in depolarizations of rat superior cervical ganglion; assay type: functional
[3] = species on record: Cavia porcellus; experiment: Evaluated for the muscarinic potency in guinea pig ileum contraction model; assay type: functional
[4] = species on record: Rattus norvegicus; experiment: Evaluated for the muscarinic potency in rat hippocampal slice preparations; assay type: functional, Hippocampus
[5] = species on record: Cavia porcellus; experiment: Evaluated for the percent efficacy in guinea pig ileum contraction model; assay type: functional
[6] = species on record: Rattus norvegicus; experiment: Evaluated for the muscarinic potency in rat superior cervical ganglion; assay type: functional
[7] = species on record: Rattus norvegicus; experiment: Evaluated for the percentage efficacy in rat superior cervical ganglion; assay type: functional
[8] = species on record: Rattus norvegicus; experiment: Evaluated for the percentage efficacy in rat hippocampal slice preparations; assay type: functional, Hippocampus
[9] = species on record: Rattus norvegicus; experiment: Evaluated for the percentage efficacy in depolarizations of rat superior cervical ganglion; assay type: functional

| Structure (SMILES) | IC50 [1] [µM] | Efficacy [2] [%] | pD2 [2] | pD2 [3] | pD2 [4] | Efficacy [5] [%] | pD2 [6] | Efficacy [7] [%] | Efficacy [8] [%] | Efficacy [9] [%] |
| --- | --- | --- | --- | --- | --- | --- | --- | --- | --- | --- |
| COC(=O)[C@H]1C[C@@H]2CN[C@H]1C2 | 2.57 | 47 | 5.2 | 5.2 | <4 | 94 | – | – | – | – |
| COC(=O)[C@H]1C[C@H]2C[C@@H]1N(C)C2 | 1.91 | – | – | 4.9 | <4 | 68 | 5.9 | 71 | – | – |
| COC(=O)[C@@H]1C[C@@H]2C[C@H]1N(C)C2 | 3.89 | 70 | 4.4 | <4 | 5.9 | – | – | – | 33 | – |
| COC(=O)[C@@H]1C[C@H]2CN[C@@H]1C2 | 1.41 | 90 | 6.7 | 6 | 6 | 120 | – | – | 120 | – |
| COC(=O)C1CC2CNC1C2 (racemic) | 1.95 | 57 | 6.3 | 6.2 | 5.5 | 91 | – | – | 103 | – |
| COC(=O)C1CC2CC1N(C)C2 (racemic) | 2.82 | 82 | 5 | 4.2 | 5.4 | 58 | – | – | 39 | – |
| COC(=O)C1=CCCN(C)C1 [ARECOLINE] | – | – | 6.6 | 6.5 | 6.1 | 100 | – | – | 100 | 80 |

— ChEMBL document CHEMBL1152096 (Bioorg Med Chem Lett, 1992)
